# Test results reported in US7741286B2, “Long lasting anti-angiogenic peptides” (ConjuChem Biotechnologies Inc., priority 1999, dated 2010).
# Assay: Peptide stability assay: stability of K5 in human plasma (HPLC/MS of free intact peptide)
# Format: in vitro ADME
# Set-up: remaining at 4 h / remaining at 24 h: dose or concentration left out as unconfirmed
# Settings: for % K5 peptide in plasma: final concentration 160 mM K5
# Procedure: K5 was prepared as a 1 μM solution and dissolved in 25% human serum albumin. The mixture was then incubated at 37° C. in the presence of human plasma to final concentration of […] K5. Aliquots of 100 μl were withdrawn from the plasma at 0, 4 hours and 24 hours. The 100 μl aliquots were mixed with 100 μl of blocking solution (5 vol. 5% ZnSO4/3 vol. Acetonitrile/2 vol. Methanol) in order to precipitate all proteins. The sample was centrifuged for 5 min at 10,000 g and the supernatant containing the peptide was recovered and filtered through a 0.22 μm filter. The presence of free intact K5 peptide was assayed by the HPLC/MS. The HPLC parameters for detection of K5 peptide in serum were as follows.
# The HPLC method was as follows: A Vydac C18 250×4.6 mm, 5μ particle size column was utilized. The column temperature was 30° C. with a flow rate of 0.5 ml/min. Mobile Phase A was 0.1% TFA/water. Mobile Phase B was 0.1% TFA/acetonitrite. The injection volume was 10 μl.
# The gradient was as follows: […]
# The proteins were detected at 214, 254 and 334 nm. For mass spectral analysis, the ionization mode was API-electrospray (positive mode) at an M/Z range of 300 to 2000. The gain was 3.0, fragmentor 120 v, threshold 20, stepsize 0.1. The gas temp was 350° C. and the dying gas volume was 10.0 l/min. The Neb pressure was 24 psi and the Vcap was 3500V. The HPLC method was as follows: A Vydac C18 250×4.6 mm, 5μ particle size column was utilized. The column temperature was 30° C. with a flow rate of 0.5 ml/min. Mobile Phase A was 0.1% TFA/water. Mobile Phase B was 0.1% TFA/acetonitrite. The injection volume was 10 μl.
# The proteins were detected at 214, 254 and 334 nm. For mass spectral analysis, the ionization mode was API-electrospray (positive mode) at an M/Z range of 300 to 2000. The gain was 3.0, fragmentor 120 v, threshold 20, stepsize 0.1. The gas temp was 350° C. and the drying gas volume was 10.0 l/min. The Neb pressure was 24 psi and the Vcap was 3500V.
substance,measurement,setting,value
"H-PRKLYDK-NH2 [Example K5, Pro-Arg-Lys-Leu-Tyr-Asp-Lys-NH2]",% K5 peptide in plasma,"0 hrs, 37° C. in human plasma",100%
same,remaining at 4 h,"4 hrs, 37° C. in human plasma",9%
same,% K5 peptide in plasma,"4 hrs, 37° C. in human plasma",9%
same,remaining at 24 h,"24 hrs, 37° C. in human plasma",0%
same,stability of unmodified K5 peptide in serum/plasma (in words),"human plasma, 37° C.",quite unstable
